Where a name gives a salt, the structure may show the parent alone. Read-outs that look alike come from different tables or passages of the source.
Columns and labels:
β-lactamase = target: T1, β-lactamase (Citrobacter freundii, UniProt P05193); experiment: biochemical
T1 construct: Various β-lactamases can be isolated from penicillin- or cephalosporin-resistant bacterial strains such as; endogenous in cells; host or cells: Citrobacter freundii 1203 (enzyme purified from the crude cell extract, after ampicillin induction when necessary)
Protocol: A. Isolation of the β-lactamases
Various β-lactamases can be isolated from penicillin- or cephalosporin-resistant bacterial strains such as Klebsiella pneumoniae NCTC 418, Proteus vulgaris 1028, Bacillus licheniformis 749/C, Escherichia coli SN01 and Citrobacter freundii 1203. For this purpose, the corresponding strains are cultivated in Tryptic Soy Broth (Difco) and harvested by centrifugation in the last logarithmic growth phase (when necessary 50-100 mg/l of ampicillin are added to the medium towards the end of the log-phase in order to induce the β-lactamase). The thus-obtained bacterial mass is treated with 20 mM Tris-HCl buffer (pH 7.0); the cells are broken open with a French press while cooling. The mixture is centrifuged (20,000 r/min.) for 20-30 minutes and a clear crude extract is obtained.
B. Determination of the β-lactamase activity
The determination of the activity of the isolated β-lactamases can be carried out according to the method of O'Callaghan, C. H. et al. [Antimicr. Ag. Chemother., 1, 283-288 (1972)] using the chromogenic cephalosporin nitrocefin (87/312 from Glaxo). The requisite test batch contains per ml of water: 50 mM phosphate buffer (pH 7.0), 0.1 mM nitrocefin and sufficient enzyme (β-lactamase) to achieve a ΔA/min. of about 0.1. The cleavage of the substrate, which is accompanied by a change in colour, is effected at 37° C. and is followed quantitatively at 482 nm using a spectral photometer.
C. Determination of the β-lactamase-inhibiting activity of the compounds of general formula I
The above-described cleavage of the chromogenic substrate by β-lactamases (test B.) can be inhibited by the addition of compounds of general formula I (inhibitors). […] As a measurement for the affinity of the particular tested inhibitor to the β-lactamase, which is a measurement of the strength of the inhibitor, there serves that concentration which inhibits by 50% (IC 50 in nM) the cleavage of the substrate (nitrocefin) effected under the above test conditions (test B) in the absence of an inhibitor. […] The determination of the IC50 was effected by means of a graph.
(Test organism: Citrobacter freundii)

Citrobacter freundii = experiment: MIC in vitro of a 1:4 combination of ceftriaxone with a compound of formula I (test D); type: cell-based; conditions: 1:4 combination of ceftriaxone with the compound
Protocol: D. Determination of the β-lactamase-inhibiting activity by combination of a compound of general formula I with ceftriaxone
The minimum inhibitory concentration in vitro (MIC in μg/ml) of a 1:4 combination of ceftriaxone with a compound of formula I against Citrobacter freundii is measured and compiled in Table 2 hereinafter.

[1] = IC 50 nM, isolated β-lactamase of Citrobacter freundii, substrate nitrocefin 0.1 mM, 15 minutes pre-incubation with inhibitor, 37° C., pH 7.0

T1 sequence (P05193 21-381): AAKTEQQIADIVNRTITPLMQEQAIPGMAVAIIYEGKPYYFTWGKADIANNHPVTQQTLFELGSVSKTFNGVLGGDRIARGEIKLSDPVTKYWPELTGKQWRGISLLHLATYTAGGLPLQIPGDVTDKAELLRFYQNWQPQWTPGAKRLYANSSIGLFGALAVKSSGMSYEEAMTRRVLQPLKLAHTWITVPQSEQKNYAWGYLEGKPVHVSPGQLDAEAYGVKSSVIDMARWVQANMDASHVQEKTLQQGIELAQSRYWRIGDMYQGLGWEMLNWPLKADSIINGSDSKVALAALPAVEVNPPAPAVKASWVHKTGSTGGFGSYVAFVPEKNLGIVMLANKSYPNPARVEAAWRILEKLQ

O=C(Cc1cccnc1)N1CC[C@@H]2[C@H]1C(=O)N2S(=O)(=O)[O-].[Na+] [6(i), (1S,5R)-7-Oxo-2-(3-pyridylacetyl)-2,6-diazabicyclo[3.2.0]-heptane-6-sulphonic acid sodium salt]
IC50 (β-lactamase; [1]): 700 nM | MIC (Citrobacter freundii): 4 µg/mL

N[C@@H](C(=O)N1CC[C@@H]2[C@H]1C(=O)N2S(=O)(=O)O)c1cccc(O)c1 [6(p), (1S,5R)-2-[R-2-(m-Hydroxyphenyl)glycyl]-7-oxo-2,6-diazabicyclo[3.2.0]heptane-6-sulphonic acid]
IC50 (β-lactamase): 56 nM | MIC (Citrobacter freundii): 2 µg/mL

O=C(/C=C/c1ccc(O)c(O)c1)N1CC[C@@H]2[C@H]1C(=O)N2S(=O)(=O)O [6(u), (1S,5R)-(E)-2-[3-(3,4Dihydroxy)phenyl)acryloyl)]-7-oxo-2,6-diazabicyclo[3.2.0]heptane-6-sulfonic acid sodium salt]
IC50 (β-lactamase): 40 nM | MIC (Citrobacter freundii): 2 µg/mL

O=C(CNc1ccc(O)cc1)N1CC[C@@H]2[C@H]1C(=O)N2S(=O)(=O)[O-].[Na+] [6(v), (1S,5R)-2-(4-Hydroxy-phenylaminoacetyl)-7-oxo-2,6-diazabicyclo[3.2.0]heptane-6-sulfonic acid sodium salt]
IC50 (β-lactamase; [1]): 3.5 nM | MIC (Citrobacter freundii): 8 µg/mL

O=C(/C=C/c1cccs1)N1CC[C@@H]2[C@H]1C(=O)N2S(=O)(=O)O [8(a), (1S,5R)-2-[(E)-3-(2-Thienyl)acryloyl]-7-oxo-2,6-diaza-bicyclo[3.2.0]heptane-6-sulphonic acid]
IC50 (β-lactamase): 75 nM | MIC (Citrobacter freundii): 4 µg/mL

O=C(Cn1cnnn1)N1CC[C@@H]2[C@H]1C(=O)N2S(=O)(=O)[O-].[Na+] [8(b), (1S,5R)-7-Oxo-2-(1H-tetrazol-1-ylacetyl)-2,6-diazabicyclo[3.2.0]heptane-6-sulphonic acid sodium salt]
IC50 (β-lactamase; [1]): 500 nM | MIC (Citrobacter freundii): 1 µg/mL

O=C(/C=C/c1c[nH]cn1)N1CC[C@@H]2[C@H]1C(=O)N2S(=O)(=O)[O-].[Na+] [8(d), (1S,5R)-2-[(E)-3-(4-Imidazolyl)acryloyl]-7-oxo-2,6-diazabicyclo[3.2.0]heptane-6-sulphonic acid sodium salt]
IC50 (β-lactamase; [1]): 34 nM | MIC (Citrobacter freundii): 0.5 µg/mL

O=C(CCc1ccccc1)N1CC[C@@H]2[C@H]1C(=O)N2S(=O)(=O)[O-].[Na+] [11(b), (1S,5R)-7-Oxo-2-(3-phenyl-propionyl)-2,6-diazabicyclo[3.2.0]heptane-6-sulphonic acid sodium salt]
IC50 (β-lactamase; [1]): 573 nM | MIC (Citrobacter freundii): 16 µg/mL

O=C(/C=C/c1ccc(OS(=O)(=O)[O-])c(OS(=O)(=O)[O-])c1)N1CC[C@@H]2[C@H]1C(=O)N2S(=O)(=O)[O-].[Na+].[Na+].[Na+] [11(c), (1S,5R)-2-[(E)-3,4-Bis(sulphoxy)cinnamoyl]-7-oxo-2,6-diazabicyclo[3.2.0]heptane-6-sulphonic acid sodium salt]
IC50 (β-lactamase; [1]): 1 nM | MIC (Citrobacter freundii): 16 µg/mL

O=C1[C@@H]2[C@@H](CCN2S(=O)(=O)Cc2ccccc2)N1S(=O)(=O)[O-].[Na+] [11(d), (1S,5R)-2-(Benzylsulphonyl)-7-oxo-2,6-diazabicyclo [3.2.0]heptane-6-sulphonic acid sodium salt]
IC50 (β-lactamase; [1]): 142 nM | MIC (Citrobacter freundii): 4 µg/mL

Nc1ccc(/C=C/C(=O)N2CC[C@@H]3[C@H]2C(=O)N3S(=O)(=O)O)cc1 [12(a), (1S,5R)-2-[(E)-p-Aminocinnamoyl]-7-oxo-2,6-diazabicyclo[3.2.0]heptane-6-sulphonic acid]
IC50 (β-lactamase): 105 nM | MIC (Citrobacter freundii): 4 µg/mL

O=C(CSc1nc[nH]n1)N1CC[C@@H]2[C@H]1C(=O)N2S(=O)(=O)O [12(b), (1S,5R)-7-Oxo-2-(1,2,4-triazol-3-yl-thioacetyl)-2,6-diazabicyclo[3.2.0]heptan-6-sulphonic acid]
IC50 (β-lactamase; isolated β-lactamase of Citrobacter freundii, substrate nitrocefin 0.1 mM, 15 minutes pre-incubation with inhibitor, 37° C., pH 7.0, read-out: IC 50 nM): 115 nM | MIC (Citrobacter freundii): 2 µg/mL

COc1cc(CNC(=O)N2CC[C@@H]3[C@H]2C(=O)N3S(=O)(=O)[O-])on1.[Na+] [17(aa), (1S,5R)-2-[3-Methoxy-isoxazol-5-ylmethylcarbamoyl]-7-oxo-2,6-diazabicyclo[3.2.0]heptane-6-sulfonic acid sodium salt]
IC50 (β-lactamase; [1]): 75 nM | MIC (Citrobacter freundii): 0.5 µg/mL

O=C(NCc1ccc(O)cc1)N1CC[C@@H]2[C@H]1C(=O)N2S(=O)(=O)[O-].[Na+] [17(ab), (1S,5R)-2-[4-Hydroxy-benzylcarbamoyl]-7-oxo-2,6-diazabicyclo[3.2.0]heptane-6-sulfonic acid sodium salt]
IC50 (β-lactamase; [1]): 194 nM | MIC (Citrobacter freundii): 1 µg/mL

O=C(NC1CCCC1)N1CC[C@@H]2[C@H]1C(=O)N2S(=O)(=O)[O-].[Na+] [17(ac), (1S,5R)-2-Cyclopentylcarbamoyl-7-oxo-2,6-diazabicyclo[3.2.0]heptane-6-sulfonic acid sodium salt]
IC50 (β-lactamase; [1]): 70 nM | MIC (Citrobacter freundii): 1 µg/mL

O=C1OCCN1NC(=O)N1CC[C@@H]2[C@H]1C(=O)N2S(=O)(=O)[O-].[Na+] [17(ad), (1S,5R)-7-Oxo-2-[2-oxo-oxazolidin-3-ylcarbamoyl]-2,6-diazabicyclo[3.2.0]heptane-6-sulfonic acid sodium salt]
IC50 (β-lactamase; [1]): 75 nM | MIC (Citrobacter freundii): 2 µg/mL

Nc1nc(CNC(=O)N2CC[C@@H]3[C@H]2C(=O)N3S(=O)(=O)[O-])cs1.[Na+] [17(ae), (1S,5R)-2-[2-Amino-thiazol-4-ylmethylcarbamoyl]-7-oxo-2,6-diazabicyclo[3.2.0]heptane-6-sulfonic acid sodium salt]
IC50 (β-lactamase; [1]): 200 nM | MIC (Citrobacter freundii): 1 µg/mL

O=C(NCc1nc(C2CC2)no1)N1CC[C@@H]2[C@H]1C(=O)N2S(=O)(=O)[O-].[Na+] [17(af), (1S,5R)-2-(3-Cyclopropyl-1,2,4-oxadiazol-5-ylmethylcarbamoyl)-7-oxo-2,6-diazabicyclo[3.2.0]heptane-6-sulfonic acid sodium salt]
IC50 (β-lactamase; [1]): 107 nM | MIC (Citrobacter freundii): 1 µg/mL

O=C1C[C@H](NC(=O)N2CC[C@@H]3[C@H]2C(=O)N3S(=O)(=O)[O-])C(=O)N1.[Na+] [17(ag), (1S,5R)-7-Oxo-2-[(S)-2,5-dioxo-pyrrolidin-3-ylcarbamoyl]-2,6-diazabicyclo[3.2.0]heptane-6-sulfonic acid sodium salt]
IC50 (β-lactamase; [1]): 337 nM | MIC (Citrobacter freundii): 1 µg/mL

O=C(NCCc1ccccn1)N1CC[C@@H]2[C@H]1C(=O)N2S(=O)(=O)[O-].[Na+] [17(b), (1S,5R)-7-Oxo-2-[2-(pyridin-2-yl)ethylcarbamoyl]-2,6-diazabicyclo[3.2.0]heptane-6-sulphonic acid sodium salt]
IC50 (β-lactamase; [1]): 285 nM | MIC (Citrobacter freundii): 2 µg/mL

O=C(NCc1ccccn1)N1CC[C@@H]2[C@H]1C(=O)N2S(=O)(=O)[O-].[Na+] [17(c), (1S,5R)-7-Oxo-2-[(2-pyridylmethyl)carbamoyl]-2,6-diazabicyclo[3.2.0]heptane-6-sulphonic acid sodium salt]
IC50 (β-lactamase; [1]): 400 nM | MIC (Citrobacter freundii): 2 µg/mL

O=C(NNc1ccccc1)N1CC[C@@H]2[C@H]1C(=O)N2S(=O)(=O)O [17(d), (1S,5R)-7-Oxo-2-(2-phenyl-carbazoyl)-2,6-diazabicyclo[3.2.0]heptane-6-sulphonic acid sodium salt]
IC50 (β-lactamase; [1]): 197 nM | MIC (Citrobacter freundii): 2 µg/mL

O=C(NCc1ccc(O)c(O)c1)N1CC[C@@H]2[C@H]1C(=O)N2S(=O)(=O)[O-].[Na+] [17(e), (1S,5R)-2-(3,4-Dihydroxybenzylcarbamoyl)-7-oxo-2,6-diazabicyclo[3.2.0]heptane-6-sulphonic acid sodium salt]
IC50 (β-lactamase; [1]): 250 nM | MIC (Citrobacter freundii): 2 µg/mL

Cc1nnc(O)c(CNC(=O)N2CC[C@@H]3[C@H]2C(=O)N3S(=O)(=O)O)c1C [17(f), (1S,5R)-2-(3-Hydroxy-5,6-dimethyl-pyridazin-4-yl-methylcarbamoyl)-7-oxo-2,6-diazabicyclo[3.2.0]heptane-6-sulphonic acid sodium salt]
IC50 (β-lactamase; [1]): 193 nM | MIC (Citrobacter freundii): 2 µg/mL

NS(=O)(=O)c1ccc(CNC(=O)N2CC[C@@H]3[C@H]2C(=O)N3S(=O)(=O)[O-])cc1.[Na+] [17(g), (1S,5R)-7-Oxo-2-(4-sulphamoyl-benzylcarbamoyl)-2,6-diazabicyclo[3.2.0]heptane-6-sulphonic acid sodium salt]
IC50 (β-lactamase; [1]): 427 nM | MIC (Citrobacter freundii): 2 µg/mL

O=C(NCCc1ccc(O)c(O)c1)N1CC[C@@H]2[C@H]1C(=O)N2S(=O)(=O)[O-].[Na+] [17(k), (1S,5R)-2-[2-(3,4-Dihydroxyphenyl)ethylcarbamoyl]-7-oxo-2,6-diazabicyclo[3.2.0]heptane-6-sulphonic acid sodium salt]
IC50 (β-lactamase; [1]): 109 nM | MIC (Citrobacter freundii): 16 µg/mL

From patent publication US6566355B1 (Hoffmann-La Roche Inc., priority 1991, dated 2003)
